# Laboratory results: US8604024B2, “Compounds for the reduction of beta-amyloid production” (Bristol-Myers Squibb Company, priority 2011, dated 2013)
# pIC50: −log10 of the molar value. Structures can show the parent of a compound that is named as a salt.
# System: Aβ1-42 production in H4 cells stably transfected with APP751 containing the Swedish mutation
# Experiment: Cellular assay for inhibition of Aβ1-42 production (H4 APP751 SWE clone 8.20)
# Format: cell-based
# Conditions: 19 h, H4 APP751 SWE clone 8.20 cells, 19 h incubation; read-out: Aβ42 cellular IC50
# Experimental: Cellular Assays for Inhibition of Aβ1-40 and Aβ1-42 Production
# H4 cells stably transfected with APP751 containing the Swedish mutation (H4 APP751 SWE clone 8.20, developed at BMS) were maintained in log phase through twice weekly passage at a 1:20 split. […] Following incubation for 19 h in 5% CO2 at 37° C., plates were briefly centrifuged (1000 rpm, 5 min). A 10 μl aliquot from each well was transferred to a second assay plate (Costar 3709) for Aβ40 measurements. Antibody cocktails were freshly prepared by dilution into 40 mM Tris-HCl (pH 7.4) with 0.2% BSA and added to assay plates. For Aβ42 measurements, antibodies specific for the Aβ42 neoepitope (565, developed at BMS; conjugated to the Wallac reagent (Perkin Elmer)) and the N-terminal sequence of Aβ peptide (26D6, developed at SIBIA; conjugated to APC (Perkin Elmer)) were mixed and 20 μl of the mixture was added to each well of the incubated cell plate yielding a final concentration of 0.8 ng/well 565 and 75 ng/well 26D6. For the Aβ40 measurements, antibodies specific for the Aβ40 neoepitope (TSD, developed at BMS; conjugated to the Wallac reagent (Perkin Elmer)) and 26D6 as described above were mixed and 20 μl of the mixture was added to the 10 μl aliquots which had been removed previously from the cell plate yielding a final concentration of 1.6 ng/well TSD and 17.5 ng/well 26D6. Assay plates containing antibodies were sealed with aluminum foil and incubated overnight at 4° C. Signal was determined using a Viewlux counter (Perkin Elmer) and IC50 values determined using curve fitting in CurveMaster (Excel Fit based).
row,pIC50,Structure (SMILES)
1,5.03,"COc1ccc(-c2cn(-c3ccc4c(c3)[C@@]3(C)N=C(N)SC[C@H]3CCO4)cn2)cc1 (relative stereo) [Example 31, rel-(4aS,11bS)-10-(4-(4-Methoxyphenyl)-1H-imidazol-1-yl)-11b-methyl-4a,5,6,11b-tetrahydro-4H-benzo[2,3]oxepino[4,5-d][1,3]thiazin-2-amine, bis(2,2,2-trifluoroacetate)]"
2,7.47,"C[C@]12N=C(N)SC[C@H]1CCOc1ccc(NC(=O)c3ccc(Cl)cn3)cc12 (relative stereo) [Example 33, rel-N-((4aS,11bS)-2-amino-11b-methyl-4a,5,6,11b-tetrahydro-4H-benzo[2,3]oxepino[4,5-d][1,3]thiazin-10-yl)-5-chloropicolinamide, 2,2,2-trifluoroacetate salt]"
3,7.59,"C[C@]12N=C(N)SC[C@H]1CCOc1ccc(NC(=O)c3ncc(Cl)cc3Cl)cc12 (relative stereo) [Example 34, rel-N-((4aS,11bS)-2-Amino-11b-methyl-4a,5,6,11b-tetrahydro-4H-benzo[2,3]oxepino[4,5-d][1,3]thiazin-10-yl)-3,5-dichloropicolinamide, 2,2,2-trifluoroacetate salt]"
4,7.55,"C[C@]12N=C(N)SC[C@H]1CCOc1ccc(NC(=O)c3ccc(C#N)cn3)cc12 (relative stereo) [Example 35, rel-N-((4aS,11bS)-2-Amino-11b-methyl-4a,5,6,11b-tetrahydro-4H-benzo[2,3]oxepino[4,5-d][1,3]thiazin-10-yl)-5-cyanopicolinamide, 2,2,2-trifluoroacetate salt]"
5,5.85,"C[C@]12N=C(N)SC[C@H]1CCOc1ccc(Nc3ncccc3Cl)cc12 (relative stereo) [Example 37, rel-(4aS,11bS)—N10-(3-Chloropyridin-2-yl)-11b-methyl-4a,5,6,11b-tetrahydro-4H-benzo[2,3]oxepino[4,5-d][1,3]thiazine-2,10-diamine, bis(2,2,2-trifluoroacetate)]"
6,5.89,"COc1cccnc1Nc1ccc2c(c1)[C@@]1(C)N=C(N)SC[C@H]1CCO2 (relative stereo) [Example 38, rel-(4aS,11bS)—N10-(3-Methoxypyridin-2-yl)-11b-methyl-4a,5,6,11b-tetrahydro-4H-benzo[2,3]oxepino[4,5-d][1,3]thiazine-2,10-diamine, bis(2,2,2-trifluoroacetate)]"
7,4.82,"C[C@]12N=C(N)SC[C@H]1CCOc1ccc(Nc3ncnc4ccccc34)cc12 (relative stereo) [Example 40, rel-(4aS,11bS)-11b-Methyl-N10-(quinazolin-4-yl)-4a,5,6,11b-tetrahydro-4H-benzo[2,3]oxepino[4,5-d][1,3]thiazine-2,10-diamine, bis(2,2,2-trifluoroacetate)]"
8,4.80,"C[C@]12N=C(N)SC[C@H]1CCOc1ccc(Nc3nccc4ccccc34)cc12 (relative stereo) [Example 41, rel-(4aS,11bS)—N10-(Isoquinolin-1-yl)-11b-methyl-4a,5,6,11b-tetrahydro-4H-benzo[2,3]oxepino[4,5-d][1,3]thiazine-2,10-diamine, bis(2,2,2-trifluoroacetate)]"
9,5.57,"C[C@]12N=C(N)SC[C@H]1CCCc1cc(F)c(-c3cncnc3)cc12 (relative stereo) [Example 47, rel-(4aS,11bS)-9-fluoro-11b-methyl-10-(pyrimidin-5-yl)-4,4a,5,6,7,11b-hexahydrobenzo[6,7]cyclohepta[1,2-d][1,3]thiazin-2-amine, bis(2,2,2-trifluoroacetate)]"
10,5.72,"NC1=N[C@@H]2c3cc(-c4cncnc4)ccc3CCC[C@@H]2CS1 [Example 1a, (4aS,11bS)-10-Pyrimidin-5-yl-4,4a,5,6,7,11b-hexahydro-3-thia-1-aza-dibenzo[a,c]cyclohepten-2-ylamine]"
11,8.06,"C[C@]12N=C(N)SC[C@H]1CCCc1ccc(NC(=O)c3ccc(Cl)cn3)cc12 [Example 3a, 5-Chloro-pyridine-2-carboxylic acid ((4aS,11bS)-2-amino-11b-methyl-4,4a,5,6,7,11b-hexahydro-3-thia-1-aza-dibenzo[a,c]cyclohepten-10-yl)-amide]"
12,5.46,"C[C@@]12N=C(N)SC[C@@H]1CCc1ccc(NC(=O)c3ccc(Cl)cn3)cc12 [Example 7a, N-((4aR,10bR)-2-Amino-10b-methyl-4a,5,6,10b-tetrahydro-4H-naphtho[1,2-d][1,3]thiazin-9-yl)-5-chloropicolinamide]"
13,5.92,"C[C@]12N=C(N)SC[C@H]1CCc1ccc(NC(=O)c3ccc(Cl)cn3)cc12 [Example 7b, N-((4aS,10bS)-2-Amino-10b-methyl-4a,5,6,10b-tetrahydro-4H-naphtho[1,2-d][1,3]thiazin-9-yl)-5-chloropicolinamide]"

# Further lines, the molecule ahead of its results:
row,Structure (SMILES),pIC50
1,"Cc1ncc(-c2ccc3c(c2)[C@@]2(C)N=C(N)SC[C@H]2CCO3)s1 (relative stereo) [Example 26, rel-(4aS,11bS)-11b-Methyl-10-(2-methylthiazol-5-yl)-4a,5,6,11b-tetrahydro-4H-benzo[2,3]oxepino[4,5-d][1,3]thiazin-2-amine, 2,2,2-trifluoroacetate salt]",5.07
2,"C[C@]12N=C(N)SC[C@H]1CCOc1ccc(-c3cncnc3)cc12 (relative stereo) [Example 27, rel-(4aS,11bS)-11b-methyl-10-(pyrimidin-5-yl)-4a,5,6,11b-tetrahydro-4H-benzo[2,3]oxepino[4,5-d][1,3]thiazin-2-amine, bis(2,2,2-trifluoroacetate)]",5.54
3,"C[C@]12N=C(N)SC[C@H]1CCOc1ccc(-c3cc4cc(C#N)ccc4[nH]3)cc12 (relative stereo) [Example 28, rel-2-((4aS,11bS)-2-amino-11b-methyl-4a,5,6,11b-tetrahydro-4H-benzo[2,3]oxepino[4,5-d][1,3]thiazin-10-yl)-1H-indole-5-carbonitrile, 2,2,2-trifluoroacetate salt]",5.01
4,"C[C@]12N=C(N)SC[C@H]1CCOc1ccc(-c3cncc4ccccc34)cc12 (relative stereo) [Example 29, rel-(4aS,11bS)-10-(isoquinolin-4-yl)-11b-methyl-4a,5,6,11b-tetrahydro-4H-benzo[2,3]oxepino[4,5-d][1,3]thiazin-2-amine, bis(2,2,2-trifluoroacetate)]",5.34
5,"C[C@]12N=C(N)SC[C@H]1CCOc1ccc(-c3c[nH]c4ccccc34)cc12 (relative stereo) [Example 30, rel-(4aS,11bS)-10-(1H-indol-3-yl)-11b-methyl-4a,5,6,11b-tetrahydro-4H-benzo[2,3]oxepino[4,5-d][1,3]thiazin-2-amine, 2,2,2-trifluoroacetate salt]",4.80
6,"C[C@]12N=C(N)SC[C@H]1CCOc1ccc(-n3cccn3)cc12 (relative stereo) [Example 32, rel-(4aS,11bS)-11b-Methyl-10-(1H-pyrazol-1-yl)-4a,5,6,11b-tetrahydro-4H-benzo[2,3]oxepino[4,5-d][1,3]thiazin-2-amine, 2,2,2-trifluoroacetate]",4.96
7,"C[C@]12N=C(N)SC[C@H]1CCOc1ccc(NC(=O)c3ccc(F)cn3)cc12 (relative stereo) [Example 36, rel-N-((4aS,11bS)-2-Amino-11b-methyl-4a,5,6,11b-tetrahydro-4H-benzo[2,3]oxepino[4,5-d][1,3]thiazin-10-yl)-5-fluoropicolinamide, 2,2,2-trifluoroacetate salt]",7.07
8,"C[C@]12N=C(N)SC[C@H]1CCOc1ccc(Nc3ncccc3C#N)cc12 (relative stereo) [Example 39, rel-2-(((4aS,11bS)-2-Amino-11b-methyl-4a,5,6,11b-tetrahydro-4H-benzo[2,3]oxepino[4,5-d][1,3]thiazin-10-yl)amino)nicotinonitrile, bis(2,2,2-trifluoroacetate)]",< 4.52
9,"COc1ccnc(Nc2ccc3c(c2)[C@@]2(C)N=C(N)SC[C@H]2CCO3)n1 (relative stereo) [Example 42, rel-(4aS,11bS)—N10-(4-Methoxypyrimidin-2-yl)-11b-methyl-4a,5,6,11b-tetrahydro-4H-benzo[2,3]oxepino[4,5-d][1,3]thiazine-2,10-diamine, bis(2,2,2-trifluoroacetate)]",5.82
10,"NC1=N[C@H]2c3cc(-c4cncnc4)ccc3CCC[C@H]2CS1 [Example 1b, (4aR,11bR)-10-Pyrimidin-5-yl-4,4a,5,6,7,11b-hexahydro-3-thia-1-aza-dibenzo[a,c]cyclohepten-2-ylamine]",4.55
11,"C[C@@]12N=C(N)SC[C@@H]1CCCc1ccc(NC(=O)c3ccc(Cl)cn3)cc12 [Example 3b, 5-Chloro-pyridine-2-carboxylic acid ((4aR,11bR)-2-amino-11b-methyl-4,4a,5,6,7,11b-hexahydro-3-thia-1-aza-dibenzo[a,c]cyclohepten-10-yl)-amide]",5.17

# Same assay, conditions: H4 APP751 SWE clone 8.20 cells, 19 h incubation; read-out: Aβ42 cellular IC50
row,Structure (SMILES),pIC50
1,"C[C@@]12N=C(N)SC[C@@H]1CCOc1ccc(NC(=O)c3ccc(C#N)cn3)cc12 (stereo in doubt) [Example 35a, N-((4aR,11bR)-2-amino-11b-methyl-4a,5,6,11b-tetrahydro-4H-benzo[2,3]oxepino[4,5-d][1,3]thiazin-10-yl)-5-cyanopicolinamide]",5.29
